A melting point compilation (Tetko et al.; mined from patent text by program, amines drawn as free bases though some values may be those of a salt)

SMILES | melting point
CC1(C)OC(=O)[C@@H](CC=O)O1 | 37 to 38 °C
COc1ccc(C(=O)O)c2c1CCCC2 | 214 to 215 °C
CCCCc1nc(N)c(N)c(=O)[nH]1 | 160 to 165 °C
CCOc1c(C)c(N2CCN(c3ccc(C)cc3)CC2)c(C)c2c1OC(C)(C)C2 | 152 to 155 °C
CC(C)(C)c1cc(C(C)(C)C)[nH]n1 | 191 to 193 °C
CCOP(=O)(CCN1CCC(N(C)S(=O)(=O)c2ccc(Nc3nccc(Nc4ccc(F)c(F)c4)n3)cc2)CC1)OCC | 93 to 96 °C
O=C(C=Cc1ccc(O)cc1)NCCO | 149 to 151 °C
N#CCOc1ccc2cc(-c3cnc(Cc4ccc5ccccc5c4)o3)ccc2c1 | 155 to 158 °C
CC(C)(C)c1cc2c(cc1O)C(C)(C)CC2(C)C | 114 °C
Fc1ccccc1-c1c(OCc2ncnn2CC(F)F)nn2c(-c3ccccc3F)nncc12 | 179 to 180 °C
CCC(=O)NCCC1=CCC2=C1C1=C(CC2)OCCC1 | 85 to 88 °C
Brc1cccc2ncn3ccnc3c12 | 215 to 216 °C
Cc1cc(N)c([N+](=O)[O-])c(C)c1N | 124 °C
O=C(CSc1nc[nH]n1)NC/C=C\COc1cc(CN2CCCCC2)ccn1 | 65 to 67 °C
O=C1N=C(N2CCNCC2)SC1=Cc1cccc(-c2cc(F)c(O)c(C34CC5CC(CC(C5)C3)C4)c2)c1 | 230 to 233 °C
CCCCCCCCC/C=C/C(=O)N[C@H]1CCCNC(=O)C1 | 87 to 88 °C
CC(=O)OCC(=O)Nc1ccc(C(CC2CCCC2)C(=O)Nc2nccs2)cc1 (centres undefined) | 90 to 95 °C
c1cc2cc3cnccc3cc2cn1 | 174 °C
CC1(C)NC2(CCCCC2)NC1(C)C | 31 to 32 °C

SMILES | melting point
O=C(C(=O)c1cnn(CC(F)(F)F)c1)c1cccc(Br)c1 | 66 to 67 °C
CC(C)(C)C(=O)c1c[nH]c2ncc(-n3ccnc3)nc12 | 215 to 217 °C
COc1cccc2c1nc(C(F)F)n2-c1nc(N2CCNCC2)nc(N2CC3CCC(C2)O3)n1 | 221 to 223 °C
O=C1CSCC(c2ccc(F)cc2)N1 (centres undefined) | 111 to 112 °C
Cc1cc(COc2ccc(C(N)=O)cc2)c2c(N)c(C(N)=O)sc2n1 | > 250 °C
CC(=O)OC1CC2(C)C(=O)CCC2C2C(CCCCCCCCCCl)CC3=CC(=O)CCC3C12 (centres undefined) | 113 to 115 °C
OCc1ccc(/C=C/c2ccncc2)nc1 | > 199 °C
OC(CC1CCN(CC2CC2)CC1)(c1ccccc1)c1ccc(F)cc1 (centres undefined) | 115 to 116 °C
COc1cccc2c1Sc1c(OC)cccc1C2(CCOS(C)(=O)=O)CCOS(C)(=O)=O | 176 to 178 °C
NCCOCn1cnc2c(N)ncnc21 | 170 to 171 °C
CC(C)NC(=O)c1cc2ncn(C)c2c(Cl)c1NC(=O)c1cc(C(F)(F)F)nn1-c1ncccc1Cl | 150 to 155 °C
NC(=NCC(F)(F)F)Nc1nc(CO)ns1 | 123 to 125 °C
c1ccc(C(NCc2ccc(CNC(c3ccccc3)c3ccccc3)cc2)c2ccccc2)cc1 | 92 to 94 °C
CCC(Nc1ccc(OC)nc1)n1nnc2ccccc21 (centres undefined) | 109 to 110 °C
CCCCC(OC(=O)c1ccccc1)P(=O)(O)OC(CCCCN)C(=O)N1CCCC1C(=O)O (centres undefined) | 158 to 170 °C
C=CCNc1c(C(C)=O)cnc2cn[nH]c12 | 211 to 213 °C
Cc1cc(O)nc2[nH]nc(C)c12 | 233 to 235 °C
CC12CCC(=O)C=C1CCN(C(=O)OCc1ccccc1)C2 (centres undefined) | 128 °C
CC(C)(C)OC(=O)NCc1nc(C(=O)NNC(=O)OCc2ccccc2)cc(OCc2ccccc2)c1OCc1ccccc1 | 128 to 129 °C

Further lines, results first:

melting point | SMILES
140 to 160 °C | CCC(CNC(=S)Nc1cccc(-c2c[nH]cn2)c1)N(Cc1ccc(Cl)c(Cl)c1)c1ccc(Br)cn1 (centres undefined)
183 to 184 °C | O=C1OC(=O)C(c2ccccc2)=C1c1ccccc1
153 to 154 °C | O=C(Nc1ccc(O)cc1)OCc1ccccc1
177 to 179 °C | CC(C)C(=O)N[C@H]1CCc2c(c3cc(Br)ccc3n2Cc2ccccc2)C1
342 °C | O=C(Nc1cccc2c(=O)cc[nH]c12)c1c(Cl)cccc1Cl
77 °C | c1ccc(-c2cnc3ccccc3n2)cc1
184 °C | N[C@@H]1CCCN([C@@H]2Cc3ccccc3[C@H]2Oc2cc3c(cc2Cl)NC(=O)CC3)C1
177 to 179 °C | CCOC(=O)C1C(=O)C=C(c2ccccc2)N=C1c1ccccc1 (centres undefined)
92 to 97 °C | O=C(O)c1c(Cl)c(Cl)c(Cl)c(Cl)c1C(=O)Nc1ccc(S(=O)(=O)C(F)(F)F)cc1
158 to 161 °C | O=C(N[C@@H](Cc1ccc(OCCc2coc(-c3ccccc3)n2)cc1)C(=O)O)c1ccc(Cl)cc1
97 °C | N#CCC1CC(=O)N(c2ccc(F)cc2)C1=O (centres undefined)
140 to 142 °C | Cc1ccccc1COC(=O)c1ccc(C(=O)N2Cc3ccccc3Cc3ccccc32)cc1
136 to 138 °C | CC(=O)NCC1CC1c1c(-c2cccnc2)ccc2nn(C)cc12 (centres undefined)
217 to 220 °C | C#CCN(Cc1ccc2nc(NC(=O)C(C)(C)C)[nH]c(=O)c2c1)c1ccc(S(=O)(=O)N(C)C)cc1
95 to 98 °C | O=C1CCC(Cc2ccc(Cl)cc2)N1 (centres undefined)
76 to 77 °C | O=C(O)CCCc1ccc(-c2ccc(F)cc2F)cc1
148 to 149 °C | O=C(NCCO)c1cccc(-c2cccc3c2CN(Cc2cccc(C(F)(F)F)c2)C3=O)c1
86 to 88 °C | CCCCc1ncc(CO)n1Cc1ccccc1Cl

melting point | SMILES
> 300 °C | O=C(O)c1cnc2c3cccc([N+](=O)[O-])c3ccn2c1=O
182 to 184 °C | NC(=O)c1ncn2c1NCC=C2c1cccc(Cl)c1
82 °C | CC1=CC(=O)CC(c2cccc(Cl)c2)N1C (centres undefined)
213 to 215 °C | O=C(/C=C/c1ccc(Br)cc1)c1cnc2sccn12
206 to 207 °C | CCOC(=O)C1C=Nc2c(ccc3cc(C(=O)N(C)Cc4ccc(F)cc4)cnc23)C1=O (centres undefined)
245 to 247 °C | CC(C)(C)c1ccc(Oc2nc(Nc3cccc(C(=O)O)c3)nc(Oc3ccccc3)n2)cc1
214 to 216 °C | COC(=O)C1C(=O)Nc2cccc(C(F)(F)F)c2CC1c1ccc(OC)cc1 (centres undefined)
208 to 209 °C | O=C(NCc1cccc(-c2nc(=O)c3ccccc3s2)n1)c1cccs1
216 to 218 °C | CC(=O)Nc1c(C(=O)c2cc(CO)ccn2)[nH]c2cc(Cl)ccc12
> 245 °C | O=C(Nc1ccc(-n2nc(C(F)(F)F)cc2C(F)(F)F)cc1)c1ccc(O)cc1
> 300 °C | COc1ccc(-c2[nH]nc3c2C(=O)c2c(NC(=O)CCNc4ccncc4)cccc2-3)cc1
203 to 205 °C | CCSC/C=C\c1cc(F)c2ncc(C(=O)NCc3ccc(Cl)cc3)c(O)c2c1
234 to 236 °C | O=C(O)COC1=C(Cc2ccc3c(Br)cccc3c2)C(=O)CCC1
145 to 148 °C | CC(C#N)c1ccc(C(=O)c2ccc(Cl)cc2)n1C (centres undefined)
155 °C | COc1ccc(SC(C(=O)NO)c2ccccc2)cc1 (centres undefined)
196 to 198 °C | Clc1cccc(Cn2cnc3c(-c4ccco4)nc(Cl)nc32)c1
> 245 °C | CN[C@@H]1COc2cc(Cl)cc(-c3ccccc3C)c2O1
181 to 183 °C | Cc1ccc(Oc2ccc(-c3nnc(N)o3)cc2)c(O)c1
